Assay: Laboratory-induced black spot defect: cheese with ITS components exposed to aged cheese volatiles or hydrogen sulfide gas
Type: physicochemical
Conditions: blended in cheese, exposed to authentic cheese volatiles or H2S gas
Method: FIGS. 4A and 4B are images of laboratory-induced black spot defects. In FIG. 4A, the various components of “ORBESEAL”-brand intra-mammary teat sealant (ITS) were blended with cheese and each spot was photographed immediately. […] Sites 4 and 5 contain bismuth subnitrate and the intact “ORBESEAL”-brand ITS formulation, respectively.
To confirm the reactivity of bismuth subnitrate as a reactant in forming bismuth Ill sulfide nanorods, additional assays were conducted to see if BSD could be purposefully recreated in the lab. In short, cheeses were manufactured with known amounts of ITS components and subjected to either the authentic volatile gasses produced by maturing cheeses or exposed directly to the hypothesized bismuth subnitrate co-reactant, hydrogen sulfide gas. […] No other ITS component formed black spots when so exposed. Furthermore, the susceptible sites formed identically black pigmentation when exposed to either authentic cheese volatiles or to hydrogen sulfide gas, thus confirming that hydrogen sulfide gas was the suspected co-reactant.

## O=[N+]([O-])[O-].O=[N+]([O-])[O-].O=[N+]([O-])[O-].O=[N+]([O-])[O-].[Bi+3].[Bi+3].[Bi+3].[Bi+3].[Bi+3].[O-2].[OH-].[OH-].[OH-].[OH-].[OH-].[OH-].[OH-].[OH-].[OH-] [bismuth subnitrate]
  Formation of black pigmentation (black spots) with nanorod structures: formed identical black pigmentation
